# From patent publication US20090087845A1, “Genetic Markers Of True Low Birth Weight” (priority 2005, published 2009)
# Where “and” joins values, the source holds several entries; their conditions need not be identical. Identical values can stand only once.
# System: placental gene expression
# Assay: Placental gene expression (Affymetrix Rat Genome Chip 230.2) after SSRI (fluoxetine) exposure throughout gestation
# Format: in vivo
# Conditions: placenta, SSRI-exposed samples
# Description: Gene expression data from pregnant rats under different forms of dietary restriction was gathered. […] (N=8) • Group 2 (CR50): Rats Given 50% of their Normal Daily Intake of Food. (N=5) • Group 3 (CR70): Rats Given 70% of their Normal Daily Intake of Food. […] (N=6) Placentas from the rats of each Group were harvested on Day 21 of gestation. RNA was extracted and gene expression was measured based on hybridization of RNA to Affymetrix Rat Genome Chips™ (230.2) (Affymetrix, Santa Clara, Calif.).
# In order to determine whether placental gene expression profiling can be used to identify other prenatal exposures such as toxicants and drugs, a group of rats with drug exposure was monitored as described above. […] As with control, CR50, CR70, and HF groups, placentas from the mothers were sampled after 21 days of gestation and gene expression monitored utilizing an Affymetrix Rat Genome Chip.
compound,measurement,value
"CNCCC(Oc1ccc(C(F)(F)F)cc1)c1ccccc1 (centres unmarked) [fluoxetine, Fluoxetine]","expression, probeset 1368985_at",4.725 and 4.454 and 4.646 and 4.715 and 4.588 and 4.472
same,"expression, probeset 1369005_at",5.188 and 5.546 and 5.291 and 5.305 and 5.241 and 5.222
same,"expression, probeset 1369014_at",4.757 and 5.004 and 4.708 and 4.543 and 4.616 and 4.993
same,"expression, probeset 1369051_at",5.588 and 5.207 and 4.835 and 5.011 and 5.144 and 5.186
same,"expression, probeset 1369192_at",5.561 and 5.364 and 5.202 and 5.355 and 5.327 and 5.66
same,"expression, probeset 1369754_a_at",8.583 and 8.277 and 8.264 and 8.283 and 8.554 and 8.483
same,"expression, probeset 1369894_at",3.616 and 3.758 and 3.897 and 3.839 and 4.008 and 3.982
same,"expression, probeset 1370115_at",4.967 and 4.917 and 4.824 and 4.622 and 4.818 and 4.719
same,"expression, probeset 1370260_at",7.313 and 7.599 and 7.249 and 7.038 and 7.707 and 6.879
same,"expression, probeset 1370521_at",8.48 and 8.58 and 8.737 and 8.764 and 8.624 and 8.798
same,"expression, probeset 1370682_at",5.579 and 5.507 and 5.51 and 5.944 and 5.574 and 5.843
same,"expression, probeset 1370688_at",7.904 and 7.963 and 8.096 and 7.915 and 8.157 and 7.99
same,"expression, probeset 1370766_at",4.633 and 4.679 and 4.503 and 4.578 and 4.207 and 4.398
same,"expression, probeset 1371435_at",11.53 and 11.47 and 12.47 and 12.43 and 12.2189 and 12.12
same,"expression, probeset 1371813_at",6.757 and 6.608 and 7.254 and 7.022 and 6.663 and 6.909
same,"expression, probeset 1372141_at",9.643 and 9.597 and 10.34 and 10.39 and 9.957 and 10.19
same,"expression, probeset 1372462_at",7.912 and 7.819 and 7.864 and 7.873 and 6.184 and 8.214
same,"expression, probeset 1372514_s_at",8.136 and 8.21 and 8.071 and 8.128 and 7.741 and 8.134
same,"expression, probeset 1372593_at",7.225 and 7.133 and 7.724 and 8.015 and 7.571 and 7.719
same,"expression, probeset 1373319_at",9.595 and 9.441 and 10.05 and 10.11 and 10.07 and 9.901
same,"expression, probeset 1373396_at",8.164 and 8.317 and 8.21 and 8.056 and 8.147 and 8.247
same,"expression, probeset 1373702_at",7.559 and 7.846 and 7.181 and 7.332 and 7.377 and 7.496
same,"expression, probeset 1373804_at",7.894 and 7.963 and 7.858 and 8.12 and 7.699 and 8.068
same,"expression, probeset 1373925_at",6.195 and 6.159
same,"expression, probeset 1374112_at",7.049 and 6.725 and 6.891 and 7.196 and 7.138 and 6.73
same,"expression, probeset 1374231_at",8.494 and 8.998 and 8.117 and 8.316 and 7.948 and 8.466
same,"expression, probeset 1374656_at",8.729 and 9.034 and 8.507 and 8.743 and 9.004 and 8.9546
same,"expression, probeset 1374739_at",8.348 and 8.65 and 7.424 and 7.76 and 7.662 and 7.815
same,"expression, probeset 1374807_at",6.505 and 6.904 and 6.697 and 6.907 and 6.749 and 6.775
same,"expression, probeset 1375407_at",4.487 and 4.33 and 4.344 and 4.489 and 4.605 and 4.326
same,"expression, probeset 1375738_at",4.993 (2×) and 4.843 and 5.388 and 5.322 and 5.141
same,"expression, probeset 1376136_at",5.074 and 4.867 and 4.557 and 4.873 and 4.805 and 4.931
same,"expression, probeset 1376218_a_at",4.961 and 5.16 and 4.667 and 4.873 and 4.562 and 4.552
same,"expression, probeset 1376278_at",6.191 and 6.405 and 5.934 and 6.175 and 6.205 and 6.006
same,"expression, probeset 1376289_at",3.746 and 3.75 and 3.659 and 3.772 and 3.71 and 3.697
same,"expression, probeset 1376294_at",7.495 and 7.951 and 7.425 and 7.689 and 7.578 and 7.48
same,"expression, probeset 1376844_at",3.958 and 3.92 and 4.036 and 4.211 and 4.082 and 4.214
same,"expression, probeset 1376852_at",6.78 and 6.537 and 6.455 and 6.699 and 6.862 and 6.682
same,"expression, probeset 1377028_at",5.528 and 5.846 and 5.206 and 5.427 and 5.578 and 5.375
same,"expression, probeset 1377123_at",8.958 and 9.069 and 8.729 and 8.819 and 8.853 and 8.789
same,"expression, probeset 1377210_at",5.83 and 5.617 and 6.032 and 5.854 and 6.198 and 5.93
same,"expression, probeset 1377414_at",7.593
same,"expression, probeset 1377476_at",3.935 and 3.899 and 3.84 and 3.865 and 3.998 and 4.107
same,"expression, probeset 1377621_at",8.676 and 8.675 and 8.549 and 8.432 and 8.896 and 8.593
same,"expression, probeset 1377746_at",6.432 and 6.591 and 6.425 and 6.509 and 6.484 and 6.597
same,"expression, probeset 1378275_at",8.581 and 8.43 and 8.773 and 8.828 and 8.515 and 8.555
same,"expression, probeset 1378318_at",7.572 and 7.8 and 8.112 and 7.987 and 7.864 and 8.147
same,"expression, probeset 1378355_a_at",5.807 and 6.412 and 5.853 and 5.536 and 5.777 and 6.037
same,"expression, probeset 1378642_at",6.331 and 6.197 and 6.546 and 6.861 and 6.598 and 6.634
same,"expression, probeset 1378705_at",8.279 and 8.34 and 7.828 and 7.561 and 7.947 and 7.98
same,"expression, probeset 1378872_at",4.782 and 4.711 and 4.621 and 4.863 and 4.867 and 4.775
same,"expression, probeset 1378992_at",3.832 and 3.701 and 3.85 and 3.859 and 3.911 and 3.949
same,"expression, probeset 1379110_at",3.965 and 4.036 and 3.739 and 3.917 and 3.886 and 3.804
same,"expression, probeset 1379140_at",4.026 and 4.28 and 4.108 and 3.886 and 4.071 and 4.079
same,"expression, probeset 1379206_at",6.486 and 6.611 and 6.213 and 6.405 and 6.472 and 6.395
same,"expression, probeset 1379235_x_at",7.486 and 7.695 and 7.128 and 7.252 and 7.527 and 7.244
same,"expression, probeset 1379342_at",6.297 and 6.3 and 6.275 and 6.188 and 6.259 and 6.187
same,"expression, probeset 1379408_at",8.688 and 8.662 and 8.77 and 8.887 and 8.853 and 8.912
same,"expression, probeset 1379796_at",5.201 and 4.92 and 5.205 and 5.072 and 5.171 and 5.031
same,"expression, probeset 1379827_at",7.897 and 7.85 and 7.7663 and 7.925 and 7.632 and 7.663
same,"expression, probeset 1379963_at",6.925 and 7.095 and 7.165 and 7.115 and 7.307 and 7.146
same,"expression, probeset 1379980_at",7.864 and 7.817 and 8.195 and 8.083 and 7.784 and 8.003
same,"expression, probeset 1380152_at",5.47 and 5.228 and 5.461 and 5.179 and 5.39 and 5.269
same,"expression, probeset 1380392_at",6.093 and 5.622 and 5.425 and 5.398 and 5.781 and 5.646
same,"expression, probeset 1380454_at",5.81 and 5.871 and 5.693 and 5.717 and 5.721 and 5.875
same,"expression, probeset 1381074_at",4.343 and 4.301 and 4.059 and 4.183 and 4.17 and 4.086
same,"expression, probeset 1381122_at",5.406 and 5.219 and 5.499 and 5.148 and 5.434 and 5.212
same,"expression, probeset 1381286_at",5.261 and 5.374 and 5.297 and 5.034 and 5.316 and 5.389
same,"expression, probeset 1381483_at",3.996 and 4.01 and 3.983 and 3.972 and 3.97 and 4.017
same,"expression, probeset 1381872_at",6.498 and 7.027 and 7.042 and 6.737 and 6.911 and 6.996
same,"expression, probeset 1381874_at",6.734 and 6.453 and 6.457 and 6.588 and 6.285 and 6.523
same,"expression, probeset 1381941_at",8.218
same,"expression, probeset 1381950_at",3.397 and 3.37 and 3.47 and 3.379 and 3.404
same,"expression, probeset 1381966_at",8.36 and 8.855 and 8.774 and 8.518 and 8.76 and 8.757
same,"expression, probeset 1382015_at",7.649 and 7.911 and 7.376 and 7.559 and 7.728 and 7.55
same,"expression, probeset 1382056_at",8.204 and 7.693 and 8.302 and 8.683 and 9.183 and 8.357
same,"expression, probeset 1382110_at",7.206 and 7.183 and 6.692 and 6.852 and 6.784 and 6.862
same,"expression, probeset 1382513_at",6.939 and 6.904 and 6.918 and 6.844 and 6.991 and 6.992
same,"expression, probeset 1382608_at",5.493 and 5.536 and 5.441 and 5.641 and 5.553 and 5.573
same,"expression, probeset 1382825_at",6.303
same,"expression, probeset 1382932_at",5.367 and 5.211 and 5.239 and 5.252 and 5.387 and 5.359
same,"expression, probeset 1383132_at",5.887 and 6.391 and 5.865 and 5.893 and 5.977 and 5.951
same,"expression, probeset 1383300_at",8.422 and 8.732 and 8.861 and 8.982 and 9.071 and 8.854
same,"expression, probeset 1383309_at",7.874 and 8.135 and 8.529 and 8.112 and 8.518 and 7.955
same,"expression, probeset 1383376_at",6.632 and 7.028 and 7.303 and 6.987 and 6.76 and 6.955
same,"expression, probeset 1383430_at",6.213 and 5.851 and 6.754 and 6.641 and 6.446 and 6.508
same,"expression, probeset 1383443_at",5.895 and 5.907 and 6.025 and 5.854 and 5.859 and 6.136
same,"expression, probeset 1383472_at",3.955 and 3.951 and 3.984 and 4.033 and 3.887 and 3.899
same,"expression, probeset 1383659_a_at",5.774 and 5.519 and 5.386 and 5.431 and 4.833 and 6.496
same,"expression, probeset 1383667_at",8 and 8.041 and 8.381 and 8.126 and 8.244 and 8.175
same,"expression, probeset 1383670_at",7.784 and 7.593 and 7.74 and 7.592 and 7.856 and 7.209
same,"expression, probeset 1383900_at",4.742 and 4.617 and 4.606 and 4.705 and 4.749 and 4.765
same,"expression, probeset 1383984_at",3.997 and 4.264 and 4.189 and 4.266 and 4.14 and 4.315
same,"expression, probeset 1384135_at",7.574 and 7.593 and 7.557 and 7.727 and 7.711 and 7.722
same,"expression, probeset 1384195_at",5.325 and 5.826 and 5.609 and 5.355 and 5.716 and 5.368
same,"expression, probeset 1384374_at",6.358 and 6.643 and 6.365 and 5.887 and 6.421 and 6.362
same,"expression, probeset 1384377_at",7.233 and 7.134 and 7.085 and 7.15 and 7.214 and 7.158
same,"expression, probeset 1384467_at",8.34 and 8.507 and 8.418 and 8.058 and 8.062 and 8.234
